Experimental data taken from patent publication US5827838A, “Method for the treatment of diseases related with protein isoprenylation” (priority 1994, dated 1998).
Read-outs that look alike come from different tables or passages of the source.

Experiments:
[1] = target: T1, protein;farnesyl transferase (Oryctolagus cuniculus, UniProt G1SFC8+G1T7D9); experiment: Inhibition of farnesylation of H-ras protein (p21ras precursor) by farnesyl:protein transferase in rabbit reticulocyte lysate, [3H]-FPP incorporation; conditions: different amounts of compound
Target sequence in this assay (G1T7D9 entry or part of it, one chain of several): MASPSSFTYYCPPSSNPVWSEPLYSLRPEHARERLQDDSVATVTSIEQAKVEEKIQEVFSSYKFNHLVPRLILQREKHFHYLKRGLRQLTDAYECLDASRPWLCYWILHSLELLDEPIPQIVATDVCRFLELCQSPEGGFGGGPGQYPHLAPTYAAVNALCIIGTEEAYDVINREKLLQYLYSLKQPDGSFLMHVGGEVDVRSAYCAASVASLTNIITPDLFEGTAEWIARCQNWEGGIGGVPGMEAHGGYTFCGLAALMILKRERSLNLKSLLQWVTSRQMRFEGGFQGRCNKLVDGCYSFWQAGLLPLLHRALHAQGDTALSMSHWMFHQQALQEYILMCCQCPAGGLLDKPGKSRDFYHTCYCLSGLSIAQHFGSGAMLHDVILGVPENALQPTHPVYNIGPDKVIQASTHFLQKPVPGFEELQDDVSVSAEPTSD

squalene synthase = target: T2, squalene synthase (Rattus norvegicus, UniProt Q02769); experiment: Inhibition of squalene synthase in rat liver microsomal preparations; assay type: biochemical; conditions: at dosage amounts inhibiting p21ras farnesyl transferase
T2 construct: squalene synthase in rat liver microsomal preparations; from tissue; host or cells: rat liver microsomes
T2 sequence (Q02769 1-416): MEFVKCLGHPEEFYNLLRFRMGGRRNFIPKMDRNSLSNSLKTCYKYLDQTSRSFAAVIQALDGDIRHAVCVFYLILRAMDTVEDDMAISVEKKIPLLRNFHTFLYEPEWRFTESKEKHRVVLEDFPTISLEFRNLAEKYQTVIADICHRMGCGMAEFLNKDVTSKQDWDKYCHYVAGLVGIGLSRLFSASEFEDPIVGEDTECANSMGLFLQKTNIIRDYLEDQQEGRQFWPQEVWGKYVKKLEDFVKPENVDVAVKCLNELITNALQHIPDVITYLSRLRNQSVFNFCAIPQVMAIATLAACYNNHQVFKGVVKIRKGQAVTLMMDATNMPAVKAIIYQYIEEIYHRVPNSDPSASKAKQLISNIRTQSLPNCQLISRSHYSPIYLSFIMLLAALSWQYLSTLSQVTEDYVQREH

[2] = target: T1, protein;farnesyl transferase; experiment: Inhibition of protein;farnesyl transferase using C-terminal octapeptide pre-p21N-ras coupled to Sepharose beads as substrate; assay type: biochemical, rabbit; design: substrate N-ras C-terminal octapeptide on Sepharose beads
Rat-1.H-ras13 cells = experiment: Inhibition of cell proliferation of transformed Rat-1.H-ras13 cells (cell count, trypan blue exclusion); assay type: cell-based; conditions: 10 days
Protocol: Cells were cultured for 10 days in DMEM supplemented with 10% fetal calf serum in the presence of 0, 25 or 100 μM of compound 3. At day 0, cells were plated in monolayer culture at 5×10^3 cells per well (6 well plates). On day 3 and 7, cells were re-fed with the same medium. On day 10, cells were harvested by trypsinization and counted using a standard hemocytometer chamber. Values are the mean of triplicate countings of duplicate incubations. In these ten days control cells had been proliferated exponentially to 1.94×10^6 ±0.04×10^6 cells per well.

[3] = tested on: farnesylation of p21ras in Rat-1.H-ras13 cells; assay type: cell-based, rat cells overexpressing human p21Ha-ras; conditions: 24 h
Protocol: It was shown now that compound 3 acts as a protein: farnesyl transferase inhibitors in cultured cells. For this purpose Rat-1.H-ras13 cells, which overexpress human p21^Ha-ras (Downword J. et al., Proc. Natl. Acad. Sci. U.S.A. 1988; 85; 5774-5778), were used. These cells were incubated with [^3 H]-mevalonate and 0, 0.1, 1, 10 and 100 μM of compound 3 for 24 h in DMEM containing 1% human serum albumin and 2.5 μM of simvastatin.
Thereafter cells were lysed in 300 μl PBS supplemented with 1% Triton X-100, 0.5% sodium deoxycholate, and the protease inhibitors phenylmethylsulfonylfluoride (1 mM), leupeptine (50 μg/ml), pepstatin A (50 μg/ml) and trasylol (300 K.I.U./ml), and p21^ras was collected on immobilized monoclonal antibody Y13-259 (Osterop A.P.R.M. et al., J. Biol. Chem. 1992; 267; 14647-14653). After separation by SDS polyacrylamide gel electrophoresis the [^3 H]-labelled polypeptides were visualized by autoradiography.

[4] = read-out: IC50, inhibition of protein;farnesyl transferase; octapeptide pre-p21N-ras on Sepharose beads as substrate

For `CC(C)=CCCC(C)=CCCC(C)=CCCP(=O)(O)OP(=O)(O)O` [compound 1, farnesylmethylphosphonophosphate], the “enzyme activity (farnesyl:protein transferase), result in words” value [1] was “concentration-dependently decreased”, the “inhibition of squalene synthesis at amounts that inhibit p21ras farnesyl transferase, result in words” value (squalene synthase) was “without inhibiting squalene synthesis” and the IC50 [2, 4] was 930 ± 230 nM.

With `CC(C)=CCCC(C)=CCCC(C)=CCP(=O)(O)OP(=O)(O)O` [compound 3, farnesylphosphonophosphate] the “non-viable cells, trypan blue exclusion” value (Rat-1.H-ras13 cells; 0, 25 or 100 μM) was “no non-viable cells”, the “inhibition of proliferation of transformed cells, result in words” value (Rat-1.H-ras13 cells; 25 and 100 μM) was “concentration-dependently inhibits the proliferation of transformed cells in culture” and the inhibition at 25 µM (Rat-1.H-ras13 cells; Rattus norvegicus, 240 h, 25 μM, read-out: reduction in cell numbers (of control values)) was 32.5%. The inhibition at 100 µM (Rat-1.H-ras13 cells; Rattus norvegicus, 240 h, 100 μM, read-out: reduction in cell numbers (of control values)) was 49.5%, the “enzyme activity (farnesyl:protein transferase), result in words” value [1] was “concentration-dependently decreased” and the “radioactivity measured in p21ras / farnesylation of ras protein, result in words” value ([3]; 100 μM) was “no radioactivity was measured, showing that the farnesylation of the ras protein was totally blocked”. For the same molecule, the IC50 ([3]; DMEM with 1% human serum albumin and 2.5 μM simvastatin, read-out: IC50, inhibition of farnesylation of p21ras in cells) was 1 to 10 µM, the “radioactivity incorporated into p21ras, result in words” value ([3]; increasing concentrations (0.1, 1, 10, 100 μM)) was “less radioactivity was incorporated into p21^ras” and the “inhibition of squalene synthesis at amounts that inhibit p21ras farnesyl transferase, result in words” value (squalene synthase) was “without inhibiting squalene synthesis”. It also gave an IC50 [2, 4] of 340 ± 50 nM.

In the case of `CC(C)=CCCC(C)=CCCC(C)=CCC(OCP(=O)(O)O)P(=O)(O)O` (stereo not shown) [compound 6, farnesyl(phosphono)methoxymethylphosphonic acid], the IC50 ([2]; read-out: IC50, inhibition of protein;farnesyl transferase; octapeptide pre-p21N-ras on Sepharose beads as substrate; unit μm [sic]) is reported as 580 ± 440 nM.

Molecule `CC(C)=CCCC(C)=CCCC(C)=CCOCP(=O)(O)OP(=O)(O)O` [compound 5, farnesyloxymethylphosphono-phosphate] has an IC50 [2, 4] of 520 ± 70 nM.

For `CC(C)=CCCC(C)=CCCC(C)=CCC(CC=C(C)CCC=C(C)CCC=C(C)C)(P(=O)(O)O)P(=O)(O)O` [bisfarnesylmethylenebis(phosphonic acid), reference compound], the IC50 ([2]; octapeptide pre-p21N-ras on Sepharose beads as substrate; read-out: IC50, inhibition of protein;farnesyl transferase) was 147000 ± 37000 nM.
